Measured values published in US20110152343A1, “PROTEASE INHIBITORS AND BROAD-SPECTRUM ANTIVIRAL” (Functional Genetics, Inc., priority 2009, published 2011).

System: RSV
Test: RSV infection, timing of administration (production of virus particles)

SMILES: N=C(N)c1ccc2oc(/C=C/c3nc4ccc(C(=N)N)cc4[nH]3)cc2c1 [NSC 369723]
- inhibition of the production of virus particles (pfu/ml) (administration by roughly 18 hours after infection with RSV): much reduced or lost
- inhibition of the production of virus particles (pfu/ml) (administration from about 6-12 hours after infection with RSV): moderately inhibited
